Source: patent publication US12403184B2, “Compositions and methods for treating neurodegenerative disroders” (priority 2018, dated 2025)
Where no end group is shown, it is not given here.

Key:
mtDNA = assay: Measurement of mtDNA content; assay type: cell-based, mouse; settings: HdhQ111 cells, relative to TAT
Method: Total DNA was isolated from cells using Blood and Cell culture kit (QIAGEN), and then subject to qPCR using QuantiTect SYBR Green (QIAGEN). Quantitative PCR was performed using nuclear primers (GAPDH or Tert) and mtDNA primers (mt-CO2, mt-ND2, mt-CO1 and D-loop). Three technical replicates were performed for each biological sample, and the mtDNA abundance of each replicate were normalized against nuclear DNA using the 2-ΔΔCT method.

TFAM and mtDNA LSP = assay: TFAM-mtDNA binding assay (biotin-streptavidin pull down); assay type: cell-based, mouse; settings: HdhQ111 cells, relative to TAT
Method: Total lysates were isolated from cells with the indicated treatments, and then incubated with biotinylated LSP DNA probe (Biotin-LSP) or LSP (control) overnight at 4° C. Then streptavidin agarose beads (Thermo Fisher Scientific) were added for 1 h at 4° C. After incubation, the biotinstreptavidin complex was washed 3-5 times (1 ml/time) at 4° C. and subject to western blot analysis. To validate the LSP binding specificity to TFAM, 10 times (molar ratio) of non-labeled LSP was pre-incubated with an equal amount of lysate for 2 h prior to addition of the biotin-LSP probe.

HdhQ111 cells = assay: Western blot of mitochondrial biogenesis and electron transport proteins in striatal cells; assay type: cell-based, mouse
Method: Mouse striatal cell lines HdhQ7 and Q111 cells are immortalized from knock-in mice carrying 7 and 111 CAG repeats, respectively, in the mouse htt gene. HdhQ7 and HdhQ111 purchased from CHDI Foundation were cultured in DMEM supplemented with 10% (v/v) heat-inactivated FBS, 1% (v/v) penicillin/streptomycin, and 400 μg/ml G418 at 33° C. with 5% CO2. Cells within 14 passages were used in all experiments.
Protein concentration was measured by protein assay dye reagents (Bio-rad). The protein was resuspended in Laemmli buffer, loaded on SDS-PAGE, and transferred onto nitrocellulose membranes. Membranes were probed with the indicated antibodies, followed by visualization with ECL. Representative blots have been cropped for presentation.

YAC128 mice = assay: Locomotion activity in YAC128 mice; assay type: in vivo, mouse; settings: 1 mg/kg/day from 3 to 12 months, effect from 6 until 12 months of age
Excerpt: YAC128 [FVB-Tg(YAC128)53Hay/J, JAX stock number: 004938] breeders (FVB/N genetic background) were purchased from Jackson Laboratories. The YAC128 mice contain a full-length human huntingtin gene modified with a 128 CAG repeat expansion in exon 1. The mice were mated, bred, and genotyped in the animal facility of Case Western Reserve University. Male mice at the ages of 2, 3, 6, 9, and 12 months were used in the study.
Systemic peptide treatment in HD mice. All randomization and peptide treatments were prepared by an experimenter not associated with behavioral and neuropathology analysis. Male R6/2 mice (Tg) and their age-matched wild-type littermates (Wt) (6-week-old) were implanted with a 28-day osmotic pump (Alzet, Cupertino CA, Model 2004) containing TAT control peptide or DA1 peptide, which delivered peptides at a rate of 1 mg/kg/day. Male YAC128 mice (Tg) and their age-matched wild-type littermates (WT) were treated with TAT control peptide or DA1 peptide (1 mg/kg/day) by Alzet osmotic pump starting from the age of 3 months. The pump was replaced once every month.
Gross locomotor activity was assessed in R6/2 mice and age-matched wild-type littermates at the ages of 12 weeks, and in YAC128 mice and age-matched wildtype littermates at the ages of 2, 3, 6, 9, and 12 months. […] Distance moved, horizontal and vertical activities were recorded. […]

[1] = 1 mg/kg/day, administered subcutaneously
[2] = HdhQ111 cells, 1 μM/day for 4 days

For “YGRKKRRQRRRGGEDKRKT-NH2 [DA1, YGRKKRRQRRR-GG-EDKRKT-NH2]”, the mtDNA copy number (mtDNA) was “increased”, the “binding of TFAM and mtDNA” value (TFAM and mtDNA LSP) was “restored” and the “elevation of TFAM level by DA1 treatment” value (HdhQ111 cells; HD mutant cells with ATAD3A knockdown (siRNA)) was “ATAD3A knockdown abolished”. The “nuclear-encoded mitochondrial respiratory chain components” value (HdhQ111 cells; HdhQ111 cells) was “no effect”, the PGC1α level (HdhQ111 cells; [2]) was “restored” and the TFAM level (HdhQ111 cells; [2]) was “restored”. For the same substance, the mtCO2 protein level (HdhQ111 cells; [2]) was “corrected”, the general movement activity (YAC128 mice) was “improved” and the brain entry [1] was “entered the brain”.
